Source: ChEMBL document CHEMBL2401733 (Bioorg Med Chem Lett, 2013)
pIC50: −log10 of the molar value. Values after ≈ are worked out from the molar mass of the structure shown.

What was measured:
[1] = Metabolic stability in human liver microsomes assessed as compound remaining at 1 uM after 30 mins; type: ADME, Microsome; conditions: read-out: Stability
[2] = Metabolic stability in rat liver microsomes assessed as compound remaining at 1 uM after 30 mins; type: ADME, Microsome; conditions: read-out: Stability
[3] = Metabolic stability in mouse liver microsomes assessed as compound remaining at 1 uM after 30 mins; type: ADME, Microsome; conditions: read-out: Stability
[4] = target: Serine/threonine-protein kinase PLK1 (Homo sapiens, UniProt P53350); experiment: Inhibition of GST-tagged Plk1 (unknown origin) assessed as inhibition of DEKTDDED phosphorylation at Thr1342 after 60 mins by TR-FRET assay
Serine/threonine-protein kinase PLK1, sequence (P53350 whole entry): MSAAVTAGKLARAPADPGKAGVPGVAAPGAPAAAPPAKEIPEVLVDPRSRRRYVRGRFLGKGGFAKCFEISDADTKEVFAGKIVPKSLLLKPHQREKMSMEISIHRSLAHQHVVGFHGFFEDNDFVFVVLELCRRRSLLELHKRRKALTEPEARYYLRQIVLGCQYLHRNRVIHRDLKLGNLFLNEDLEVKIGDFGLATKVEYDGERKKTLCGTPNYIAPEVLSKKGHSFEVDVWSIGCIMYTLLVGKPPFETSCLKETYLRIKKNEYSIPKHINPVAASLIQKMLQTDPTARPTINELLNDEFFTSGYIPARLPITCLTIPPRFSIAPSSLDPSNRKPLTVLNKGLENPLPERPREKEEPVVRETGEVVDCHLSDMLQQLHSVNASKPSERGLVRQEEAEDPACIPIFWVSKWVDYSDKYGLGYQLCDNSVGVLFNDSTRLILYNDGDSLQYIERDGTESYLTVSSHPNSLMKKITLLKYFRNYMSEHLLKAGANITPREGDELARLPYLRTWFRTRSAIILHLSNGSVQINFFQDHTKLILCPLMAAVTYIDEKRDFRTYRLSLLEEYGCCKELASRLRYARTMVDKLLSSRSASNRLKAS

[5] = target: T1, Serine/threonine-protein kinase PLK2 (Homo sapiens, UniProt Q9NYY3)
T1 sequence (Q9NYY3 whole entry): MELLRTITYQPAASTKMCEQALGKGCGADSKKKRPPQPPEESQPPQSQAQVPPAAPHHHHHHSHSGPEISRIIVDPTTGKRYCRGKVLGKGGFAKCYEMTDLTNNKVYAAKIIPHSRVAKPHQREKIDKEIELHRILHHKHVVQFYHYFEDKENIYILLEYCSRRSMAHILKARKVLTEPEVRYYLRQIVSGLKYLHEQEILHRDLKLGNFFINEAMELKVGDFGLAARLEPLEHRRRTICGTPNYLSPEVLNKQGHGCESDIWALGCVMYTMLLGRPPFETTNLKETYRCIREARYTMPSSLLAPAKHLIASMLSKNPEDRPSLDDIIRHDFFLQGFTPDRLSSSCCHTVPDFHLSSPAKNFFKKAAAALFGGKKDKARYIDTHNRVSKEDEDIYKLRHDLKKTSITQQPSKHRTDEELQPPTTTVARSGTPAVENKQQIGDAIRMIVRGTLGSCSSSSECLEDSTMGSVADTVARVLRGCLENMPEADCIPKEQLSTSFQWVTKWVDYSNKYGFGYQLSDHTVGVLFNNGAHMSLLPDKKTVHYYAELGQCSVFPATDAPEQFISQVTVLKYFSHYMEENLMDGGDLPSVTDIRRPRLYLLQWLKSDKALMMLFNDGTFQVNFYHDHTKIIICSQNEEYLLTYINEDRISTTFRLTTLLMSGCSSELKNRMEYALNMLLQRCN
Description: Inhibition of GST-tagged Plk2 (unknown origin) assessed as inhibition of DEKTDDED phosphorylation at Thr1342 after 60 mins by TR-FRET assay

[6] = Lipophilicity, log P of the compound; type: physicochemical; conditions: octanol/water
[7] = Apparent permeability across apical to basolateral side in […] MDCK2 cells at 5 uM after 120 mins by LC/MS/MS analysis; type: ADME, cell-based, MDCK-II; conditions: MDCK
[8] = target: T1, Serine/threonine-protein kinase PLK2; remark: listed apart in the source
[9] = Solubility of the compound; type: physicochemical
Rattus norvegicus = experiment: Inhibition of Plk2-mediated phosphorylation of alpha-synuclein at Ser129 in Sprague-Dawley rat cerebral cortex at 100 to 200 mg/kg, po measured at 6 hrs by ELISA relative to control; type: functional; conditions: dose mg/kg 100-200
[10] = Ratio of drug level from brain to plasma in Sprague-Dawley rat at 200 mg/kg, po measured at 6 hrs; type: ADME, organism-based; design: dose 200 mg/kg, route oral; conditions: brain and plasma, read-out: BPR
[11] = Ratio of drug level from brain to plasma in Sprague-Dawley rat at 100 mg/kg, po measured at 6 hrs; type: ADME, organism-based; design: dose 100 mg/kg, route oral; conditions: brain and plasma, read-out: BPR
[12] = Drug uptake in Sprague-Dawley rat brain at 100 mg/kg, po measured at 6 hrs; type: ADME, organism-based; design: dose 100 mg/kg, route oral; conditions: read-out: Drug uptake
[13] = Drug uptake in Sprague-Dawley rat brain at 200 mg/kg, po measured at 6 hrs; type: ADME, organism-based; design: dose 200 mg/kg, route oral; conditions: read-out: Drug uptake
[14] = Plasma concentration in Sprague-Dawley rat at 200 mg/kg, po measured at 6 hrs; type: ADME, organism-based; design: dose 200 mg/kg, route oral
[15] = Plasma concentration in Sprague-Dawley rat at 100 mg/kg, po measured at 6 hrs; type: ADME, organism-based; design: dose 100 mg/kg, route oral
MDR1 = experiment: Efflux ratio of permeability across apical to basolateral side in […] MDCK cells expressing MDR1 at 5 uM after 120 mins by LC/MS/MS analysis; type: ADME, cell-based

CC(C)N1c2nc(-n3ccnc3-c3ccc(F)cc3)ncc2N(C)C(=O)C1(C)C
remaining at 0.5 h, 1 µM [1]: 54%
remaining at 0.5 h, 1 µM [2]: 10%
remaining at 0.5 h, 1 µM [3]: 25%
pIC50 [4]: < 4.00
pIC50 [5]: 5.57

CCC1C(=O)N(C)c2cnc(-n3ccnc3-c3ccc(F)cc3)nc2N1C1CCC(F)(F)C1 (racemic)
remaining at 0.5 h, 1 µM [1]: 6%
remaining at 0.5 h, 1 µM [2]: 8%
logP ([6]; read-out: logP): 3.1
remaining at 0.5 h, 1 µM [3]: 15%

CN1C(=O)C(CC(F)(F)F)N(CCC(F)(F)F)c2nc(-n3ccnc3-c3ccc(F)cc3)ncc21 (racemic)
remaining at 0.5 h, 1 µM [1]: 15%
remaining at 0.5 h, 1 µM [2]: 30%
remaining at 0.5 h, 1 µM [3]: 42%

CC[C@@H]1C(=O)N(C)c2cnc(-c3c[nH]nc3-c3nccs3)nc2N1[C@H]1CCOC1
Papp A→B at 2 h, 5 µM [7]: 16.8 ×10⁻⁶ cm/s
remaining at 0.5 h, 1 µM [1]: 51%
remaining at 0.5 h, 1 µM [2]: 39%
remaining at 0.5 h, 1 µM [3]: 47%
pIC50 [8]: 5.50
pIC50 [5]: 7.41

CC[C@@H]1C(=O)N(C)c2cnc(-n3ccnc3-c3ccccc3)nc2N1CCC(F)(F)F
remaining at 0.5 h, 1 µM [1]: 0%
remaining at 0.5 h, 1 µM [2]: 0%
logP ([6]; read-out: logP): 3.1
remaining at 0.5 h, 1 µM [3]: 2%

CC[C@@H]1C(=O)N(C)c2cnc(-n3ccnc3-c3ccccc3)nc2N1[C@H]1CCOC1
remaining at 0.5 h, 1 µM [1]: 17%
remaining at 0.5 h, 1 µM [2]: 13%
logP ([6]; read-out: logP): 1.9
remaining at 0.5 h, 1 µM [3]: 51%

CCC1C(=O)N(C)c2cnc(-n3ccnc3-c3ccc(F)cc3)nc2N1c1cc[nH]n1 (racemic)
Papp A→B at 2 h, 5 µM [7]: 13.2 ×10⁻⁶ cm/s
remaining at 0.5 h, 1 µM [1]: 72%
remaining at 0.5 h, 1 µM [2]: 65%
logP ([6]; read-out: logP): 2.2
remaining at 0.5 h, 1 µM [3]: 67%
pIC50 [8]: 6.13
pIC50 [5]: 8.05

CCC1C(=O)N(C)c2cnc(-n3ccnc3-c3ccc(F)cc3)nc2N1c1ccc(F)cc1 (racemic)
remaining at 0.5 h, 1 µM [1]: 47%
remaining at 0.5 h, 1 µM [2]: 11%
logP ([6]; read-out: logP): 3.4
remaining at 0.5 h, 1 µM [3]: 41%

CC(C)N1c2nc(-n3ccnc3-c3ccc(F)cc3)ncc2N(C)C(=O)C12CCC2
remaining at 0.5 h, 1 µM [1]: 4%
remaining at 0.5 h, 1 µM [2]: 1%
remaining at 0.5 h, 1 µM [3]: 7%

CCC1C(=O)N(C)c2cnc(-n3ccnc3-c3ccc(F)cc3)nc2N1c1ccc(C#N)cc1 (racemic)
remaining at 0.5 h, 1 µM [1]: 63%
remaining at 0.5 h, 1 µM [2]: 48%
logP ([6]; read-out: logP): 2.7
remaining at 0.5 h, 1 µM [3]: 49%
pIC50 [5]: 7.51

CC[C@@H]1C(=O)N(C)c2cnc(-c3c[nH]nc3-c3nccs3)nc2N1C(C)C
solubility [9]: 100 µM (≈ 38.3 µg/mL)
Papp A→B at 2 h, 5 µM [7]: 18.3 ×10⁻⁶ cm/s
remaining at 0.5 h, 1 µM [1]: 38%
remaining at 0.5 h, 1 µM [2]: 38%
remaining at 0.5 h, 1 µM [3]: 33%

CCC1C(=O)N(C)c2cnc(-n3ccnc3-c3ccccc3)nc2N1c1cncnc1 (racemic)
Papp A→B at 2 h, 5 µM [7]: 12.2 ×10⁻⁶ cm/s
pIC50 [8]: 5.41

CC[C@@H]1C(=O)N(C)c2cnc(-n3ccnc3-c3ccc(F)cc3)nc2N1C1CC(F)(F)C1
remaining at 0.5 h, 1 µM [1]: 19%
remaining at 0.5 h, 1 µM [2]: 14%
logP ([6]; read-out: logP): 3
remaining at 0.5 h, 1 µM [3]: 30%

CC[C@@H]1C(=O)N(C)c2cnc(-n3ccnc3-c3ccc(F)cc3)nc2N1c1cnn(C)c1
Papp A→B at 2 h, 5 µM [7]: 21.2 ×10⁻⁶ cm/s
remaining at 0.5 h, 1 µM [1]: 69%
remaining at 0.5 h, 1 µM [2]: 86%
logP ([6]; read-out: logP): 2
remaining at 0.5 h, 1 µM [3]: 50%

CCC1(C)C(=O)N(C)c2cnc(-n3ccnc3-c3ccc(F)cc3)nc2N1CCC(F)(F)F (racemic)
remaining at 0.5 h, 1 µM [1]: 17%
remaining at 0.5 h, 1 µM [2]: 34%
remaining at 0.5 h, 1 µM [3]: 29%

CC[C@@H]1C(=O)N(C)c2cnc(-n3ccnc3-c3ccccc3)nc2N1c1cncnc1
remaining at 0.5 h, 1 µM [1]: 55%
remaining at 0.5 h, 1 µM [2]: 76%
logP ([6]; read-out: logP): 1.3
remaining at 0.5 h, 1 µM [3]: 60%
pIC50 [5]: 7.36

CC[C@@H]1C(=O)N(C)c2cnc(-n3ccnc3-c3ccc(F)cc3)nc2N1[C@H]1CCOC1
Papp A→B at 2 h, 5 µM [7]: 23.4 ×10⁻⁶ cm/s
remaining at 0.5 h, 1 µM [1]: 58%
remaining at 0.5 h, 1 µM [2]: 67%
logP ([6]; read-out: logP): 2
remaining at 0.5 h, 1 µM [3]: 63%
pIC50 [8]: 5.69
pIC50 [5]: 7.48

CC[C@@H]1C(=O)N(C)c2cnc(-n3ccnc3-c3ccc(F)cc3)nc2N1c1ccnn1C
remaining at 0.5 h, 1 µM [1]: 74%
remaining at 0.5 h, 1 µM [2]: 80%
logP ([6]; read-out: logP): 1.9
remaining at 0.5 h, 1 µM [3]: 72%

CCC1C(=O)N(C)c2cnc(-c3cn[nH]c3-c3ccccn3)nc2N1c1cnn(C)c1 (racemic)
Papp A→B at 2 h, 5 µM [7]: 10.1 ×10⁻⁶ cm/s
remaining at 0.5 h, 1 µM [1]: 88%
remaining at 0.5 h, 1 µM [2]: 87%
remaining at 0.5 h, 1 µM [3]: 64%
pIC50 [5]: 6.77

CC[C@@H]1C(=O)N(C)c2cnc(-n3ccnc3-c3ccccc3)nc2N1[C@@H]1CCOC1
remaining at 0.5 h, 1 µM [1]: 10%
remaining at 0.5 h, 1 µM [2]: 0%
logP ([6]; read-out: logP): 1.8
remaining at 0.5 h, 1 µM [3]: 27%

CC[C@@H]1C(=O)N(C)c2cnc(-n3ccnc3-c3ccccc3)nc2N1C1CCCC1
solubility [9]: 100 µM (≈ 40.3 µg/mL)
Papp A→B at 2 h, 5 µM [7]: 11.4 ×10⁻⁶ cm/s
remaining at 0.5 h, 1 µM [1]: 0%
remaining at 0.5 h, 1 µM [2]: 0%
remaining at 0.5 h, 1 µM [3]: 0%
pIC50 [5]: 8.30

CC[C@@H]1C(=O)N(C)c2cnc(-n3ccnc3-c3ccc(F)cc3)nc2N1c1ccn(C)n1
inhibition (INH) (Rattus norvegicus): 41%
Kp at 6 h [10]: 0.28
Kp at 6 h [11]: 0.36
concentration at 6 h [12]: 5.2 µM
concentration at 6 h [13]: 3.2 µM
concentration at 6 h [14]: 4880 ng/mL
concentration at 6 h [15]: 6290 ng/mL
efflux ratio at 2 h, 5 µM (MDR1): 1.1
Papp A→B at 2 h, 5 µM [7]: 18.5 ×10⁻⁶ cm/s
remaining at 0.5 h, 1 µM [1]: 63%
remaining at 0.5 h, 1 µM [2]: 26%
logP ([6]; read-out: logP): 2.4
remaining at 0.5 h, 1 µM [3]: 25%
pIC50 [4]: 5.87
pIC50 [8]: 6.32
pIC50 [5]: 8.15

CC[C@@H]1C(=O)N(C)c2cnc(-n3ccnc3-c3ccc(F)cc3)nc2N1C1COC1
remaining at 0.5 h, 1 µM [1]: 74%
remaining at 0.5 h, 1 µM [2]: 80%
logP ([6]; read-out: logP): 1.6
remaining at 0.5 h, 1 µM [3]: 74%
pIC50 [4]: < 4.30
pIC50 [5]: 5.98

CC[C@@H]1C(=O)N(C)c2cnc(-n3ccnc3-c3ccc(F)cc3)nc2N1CCC(F)(F)F
Papp A→B at 2 h, 5 µM [7]: 15.8 ×10⁻⁶ cm/s
remaining at 0.5 h, 1 µM [1]: 27%
remaining at 0.5 h, 1 µM [2]: 30%
logP ([6]; read-out: logP): 3.1
remaining at 0.5 h, 1 µM [3]: 32%

CC[C@@H]1C(=O)N(C)c2cnc(-n3ccnc3-c3ccc(F)cc3)nc2N1c1cn[nH]c1
Papp A→B at 2 h, 5 µM [7]: 8.7 ×10⁻⁶ cm/s
remaining at 0.5 h, 1 µM [1]: 73%
remaining at 0.5 h, 1 µM [2]: 82%
logP ([6]; read-out: logP): 1.8
remaining at 0.5 h, 1 µM [3]: 66%

CCC1C(=O)N(C)c2cnc(-n3ccnc3-c3ccccc3)nc2N1c1ccccc1 (racemic)
remaining at 0.5 h, 1 µM [1]: 21%
remaining at 0.5 h, 1 µM [2]: 5%
logP ([6]; read-out: logP): 3.3
remaining at 0.5 h, 1 µM [3]: 28%
pIC50 [5]: 7.77

CC[C@@H]1C(=O)N(C)c2cnc(-c3c[nH]nc3-c3ccc(F)cc3F)nc2N1c1cnn(C)c1
remaining at 0.5 h, 1 µM [1]: 48%
remaining at 0.5 h, 1 µM [2]: 13%
remaining at 0.5 h, 1 µM [3]: 5%
pIC50 [5]: 6.99

CC[C@@H]1C(=O)N(C)c2cnc(-c3cn[nH]c3-c3nccs3)nc2N1c1cn[nH]c1
Papp A→B at 2 h, 5 µM [7]: 6.6 ×10⁻⁶ cm/s
remaining at 0.5 h, 1 µM [1]: 84%
remaining at 0.5 h, 1 µM [2]: 48%
remaining at 0.5 h, 1 µM [3]: 57%

CC[C@@H]1C(=O)N(C)c2cnc(-n3ccnc3-c3ccccc3)nc2N1C(C)C
remaining at 0.5 h, 1 µM [1]: 14%
remaining at 0.5 h, 1 µM [2]: 0%
logP [6]: Not Active
remaining at 0.5 h, 1 µM [3]: 12%

CCC1C(=O)N(C)c2cnc(-c3cn[nH]c3-c3nccs3)nc2N1c1cnn(C)c1 (racemic)
pIC50 [5]: 6.89

CC[C@@H]1C(=O)N(C)c2cnc(-c3cn[nH]c3-c3nccs3)nc2N1C1CCOCC1
Papp A→B at 2 h, 5 µM [7]: 18.9 ×10⁻⁶ cm/s
remaining at 0.5 h, 1 µM [1]: 47%
remaining at 0.5 h, 1 µM [2]: 39%
remaining at 0.5 h, 1 µM [3]: 44%
